From the NIST ThermoML archive (doi:10.1021/je049762q)

Experiment: molar heat capacity at constant pressure
Details: 101.33 kPa, Crystal

Clc1cc(Cl)cc(Cl)c1 [1,3,5-trichlorobenzene]
Details	molar heat capacity at constant pressure [J/K/mol]
6.3 K	0.73
6.76 K	1.13
7.5 K	1.88
7.61 K	1.64
8.27 K	2.46
8.49 K	2.76
9.54 K	3.28
9.57 K	3.32
10 K	3.78
10.48 K	4.28
10.78 K	4.56
11.23 K	4.67
11.76 K	5.07
12.18 K	5.67
13.16 K	7.41
14.33 K	8.56
14.68 K	9.1
15 K	9.58
16.47 K	11.78
16.54 K	11.86
18.11 K	14.04
18.46 K	14.51
19.49 K	16.03
20 K	16.74
20.47 K	17.39
20.67 K	17.88
21.77 K	19.17
22.76 K	20.24
24.03 K	21.5
25 K	22.66
25.53 K	23.3
26.89 K	24.95
26.99 K	25.08
28.15 K	26.53
29.75 K	28.33
30 K	28.58
32.12 K	30.66
34.24 K	32.73
36.16 K	34.21
37.93 K	35.9
39.58 K	37.3
40 K	37.64
41.88 K	39.13
44.77 K	41.44
47.4 K	43.42
49.84 K	45.24
50 K	45.36
52.12 K	46.94
54.28 K	48.44
56.33 K	49.86
58.29 K	51.22
60 K	52.37
60.17 K	52.49
61.98 K	53.68
63.73 K	54.83
65.43 K	55.89
67.08 K	56.99
68.68 K	57.99
70 K	58.81
70.25 K	58.96
71.78 K	59.87
73.27 K	60.75
74.74 K	61.66
76.18 K	62.52
77.59 K	63.36
78.98 K	64.16
80 K	65.01
80.55 K	65.45
81.45 K	65.93
82.22 K	66.44
83.86 K	67.37
83.98 K	67.39
85.47 K	68.28
86.45 K	68.77
87.05 K	69.08
88.6 K	70
88.86 K	70.1
90 K	70.62
90.14 K	70.69
91.23 K	71.17
91.65 K	71.42
93.14 K	72.19
